Data published in BindingDB's records for doi:10.1016/0922-4106(90)90035-v (Royal Danish School of Pharmacy, 1990).

biological target: Glutamate receptor 3 (Rattus norvegicus, UniProt P19492)
Sequence (P19492 whole entry): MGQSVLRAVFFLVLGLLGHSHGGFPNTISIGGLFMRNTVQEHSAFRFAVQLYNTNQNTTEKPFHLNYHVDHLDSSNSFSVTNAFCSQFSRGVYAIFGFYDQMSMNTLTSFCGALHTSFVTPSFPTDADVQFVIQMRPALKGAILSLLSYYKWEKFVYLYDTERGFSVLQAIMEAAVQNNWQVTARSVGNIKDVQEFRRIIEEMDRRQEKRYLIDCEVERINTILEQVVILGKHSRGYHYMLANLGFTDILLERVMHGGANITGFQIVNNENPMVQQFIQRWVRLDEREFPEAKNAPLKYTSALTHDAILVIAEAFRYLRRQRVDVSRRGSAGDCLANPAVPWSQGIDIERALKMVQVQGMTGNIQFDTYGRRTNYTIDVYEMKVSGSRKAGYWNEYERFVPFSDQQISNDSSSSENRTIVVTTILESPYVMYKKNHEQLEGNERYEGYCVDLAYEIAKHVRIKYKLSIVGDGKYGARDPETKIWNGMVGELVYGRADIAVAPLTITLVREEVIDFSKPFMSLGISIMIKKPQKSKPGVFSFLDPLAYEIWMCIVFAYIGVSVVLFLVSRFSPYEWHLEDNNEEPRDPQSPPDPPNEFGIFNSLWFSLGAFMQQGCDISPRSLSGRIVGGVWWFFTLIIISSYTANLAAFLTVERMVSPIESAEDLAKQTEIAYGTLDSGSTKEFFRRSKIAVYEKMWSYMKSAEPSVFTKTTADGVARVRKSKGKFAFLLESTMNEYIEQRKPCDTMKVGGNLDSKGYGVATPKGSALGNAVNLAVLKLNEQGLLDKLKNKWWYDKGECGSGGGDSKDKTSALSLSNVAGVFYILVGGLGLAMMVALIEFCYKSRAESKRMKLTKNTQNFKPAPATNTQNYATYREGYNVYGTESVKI

Ki [µM]	SMILES
> 10	CNC(Cc1c(C)o[nH]c1=O)C(=O)O (configuration not stated) [N-methyl-AMPA]
> 10	Cc1o[nH]c(=O)c1CC(C(=O)O)N(C)C (configuration not stated) [N,N-dimethyl-AMPA]

SMILES	Ki [µM]
O=C(O)C1NCCc2o[nH]c(=O)c21 (configuration not stated) [CAS_129091]	> 10

biological target: Glutamate receptor ionotropic, NMDA 1 (Rattus norvegicus, UniProt P35439)

SMILES	Ki [µM]
CNC(C(=O)O)c1c(C)o[nH]c1=O (configuration not stated)	> 10
O=C(O)c1cccnc1C(=O)O [pyridine-2,3-dicarboxylic acid]	> 10
Cc1o[nH]c(=O)c1C(C(=O)O)N(C)C (configuration not stated) [N,N-dimethyl-AMAA]	> 10
O=C(O)C1NCCc2o[nH]c(=O)c21 (configuration not stated) [CAS_129091]	> 10
